Measured values reported in US9556160B2, “Guanidine compound” (Astellas Pharma Inc., priority 2011, dated 2017).
Counter-ions that a name gives are not always drawn.

Key:
[1] = target: human VAP-1 enzyme (SSAO) (Homo sapiens (Human), UniProt Q16853); experiment: Inhibitory effect on human VAP-1 enzyme (SSAO) activity, radiochemistry-enzymatic assay with 14C-benzylamine; assay type: biochemical; details: CHO-expressed human VAP-1, 14C-benzylamine 1×10^−5 mol/L
Procedure: (§1) After homogenizing CHO (Chinese Hamster Ovary) cells stably expressing a human VAP-1 enzyme (SSAO) in a 50 mM phosphate buffer containing 1% NP-40, an enzyme suspension was obtained by taking the supernatant obtained by centrifugation. The enzyme suspension was preincubated with the compound of the present invention in a 96-well microplate at room temperature for 30 minutes. Subsequently, the enzyme suspension was incubated with ^14C-benzylamine (a final concentration of 1×10^−5 mol/L) to a final volume of […] at 37° C. for 1 hour. The enzymatic reaction was stopped by the addition of 2 mol/L (50 pt) of citric acid.

rat VAP-1 enzyme (SSAO) = rat VAP-1 enzyme (SSAO) (Rattus norvegicus (Rat), UniProt O08590); experiment: Inhibitory effect on rat VAP-1 enzyme (SSAO) activity, radiochemistry-enzymatic assay with 14C-benzylamine; assay type: biochemical; details: CHO-expressed rat VAP-1, 14C-benzylamine 1×10^−5 mol/L
Sequence of rat VAP-1 enzyme (SSAO) (O08590 whole entry): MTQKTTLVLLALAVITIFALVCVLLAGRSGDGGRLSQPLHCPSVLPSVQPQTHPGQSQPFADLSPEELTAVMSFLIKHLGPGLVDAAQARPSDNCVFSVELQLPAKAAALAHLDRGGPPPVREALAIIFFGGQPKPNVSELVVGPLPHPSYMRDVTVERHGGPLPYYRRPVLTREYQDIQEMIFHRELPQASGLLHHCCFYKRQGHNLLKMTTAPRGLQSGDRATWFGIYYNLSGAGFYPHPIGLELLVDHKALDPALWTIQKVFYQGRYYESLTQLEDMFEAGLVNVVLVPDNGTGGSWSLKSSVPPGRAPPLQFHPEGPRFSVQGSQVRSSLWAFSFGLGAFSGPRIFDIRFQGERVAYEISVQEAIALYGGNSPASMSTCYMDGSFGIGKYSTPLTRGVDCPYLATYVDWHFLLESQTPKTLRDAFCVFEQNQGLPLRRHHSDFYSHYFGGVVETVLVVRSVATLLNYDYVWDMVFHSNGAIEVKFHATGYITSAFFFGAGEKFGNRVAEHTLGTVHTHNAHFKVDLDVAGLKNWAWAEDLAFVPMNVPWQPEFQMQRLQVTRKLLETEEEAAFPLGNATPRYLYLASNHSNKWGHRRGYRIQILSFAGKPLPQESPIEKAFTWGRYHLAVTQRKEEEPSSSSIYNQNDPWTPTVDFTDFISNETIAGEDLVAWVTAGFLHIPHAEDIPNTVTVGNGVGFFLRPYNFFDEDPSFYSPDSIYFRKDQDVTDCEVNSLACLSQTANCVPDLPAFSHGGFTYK
Procedure: as §1, with “rat” for “human”, “μL)” for “pt)”, “acid. The oxidation products were extracted directly in a 200 μL toluene scintillator, and the radioactivity was measured with a scintillation spectrometer.” for “acid.”

[2] = test system: VAP-1 enzyme (SSAO) activity in rat plasma; experiment: Inhibitory effect on rat VAP-1 enzyme (SSAO) activity in rat plasma after oral administration; assay type: in vivo, Wistar male rats; details: rat plasma VAP-1 activity, oral 0.3 mg/kg; for Inhibition Ratio (%) 1 h: 1 h after administration; for Inhibition Ratio (%) 3 h: 3 h after administration; for Inhibition Ratio (%) 6 h: 6 h after administration; for Inhibition Ratio (%) 24 h: 24 h after administration; for Inhibition Ratio (%) 12 h: 12 h after administration
Procedure: Eight-week to twelve-week Wistar male rats were fasted for 20 hours, and orally administered with a test drug ([…]). Heparin blood collection from the tail vein was performed immediately before the administration, and at 1 h, 3 h, 6 h, 12 h, or 24 h after the administration. The resulting blood was subjected to centrifugation at 14000 rpm for 5 minutes to separate plasma, and the VAP-1 enzyme activity in the resulting plasma was measured by a radio-enzyme assay method.
For the radio-enzyme assay method, ^14C-benzylamine which is a synthetic substrate (10 μM) was reacted with the resulting plasma at 37° C., and the resulting metabolite was extracted with a mixture of toluene/ethyl acetate. The radioactivity was measured and taken as a VAP-1 enzyme activity in the plasma. The effect of the test drug was calculated from the inhibitory ratio (%) of the VAP-1 activity after the administration of the test drug relative to the VAP-1 activity in the plasma immediately before the administration.

Sequence of human VAP-1 enzyme (SSAO) (Q16853 whole entry): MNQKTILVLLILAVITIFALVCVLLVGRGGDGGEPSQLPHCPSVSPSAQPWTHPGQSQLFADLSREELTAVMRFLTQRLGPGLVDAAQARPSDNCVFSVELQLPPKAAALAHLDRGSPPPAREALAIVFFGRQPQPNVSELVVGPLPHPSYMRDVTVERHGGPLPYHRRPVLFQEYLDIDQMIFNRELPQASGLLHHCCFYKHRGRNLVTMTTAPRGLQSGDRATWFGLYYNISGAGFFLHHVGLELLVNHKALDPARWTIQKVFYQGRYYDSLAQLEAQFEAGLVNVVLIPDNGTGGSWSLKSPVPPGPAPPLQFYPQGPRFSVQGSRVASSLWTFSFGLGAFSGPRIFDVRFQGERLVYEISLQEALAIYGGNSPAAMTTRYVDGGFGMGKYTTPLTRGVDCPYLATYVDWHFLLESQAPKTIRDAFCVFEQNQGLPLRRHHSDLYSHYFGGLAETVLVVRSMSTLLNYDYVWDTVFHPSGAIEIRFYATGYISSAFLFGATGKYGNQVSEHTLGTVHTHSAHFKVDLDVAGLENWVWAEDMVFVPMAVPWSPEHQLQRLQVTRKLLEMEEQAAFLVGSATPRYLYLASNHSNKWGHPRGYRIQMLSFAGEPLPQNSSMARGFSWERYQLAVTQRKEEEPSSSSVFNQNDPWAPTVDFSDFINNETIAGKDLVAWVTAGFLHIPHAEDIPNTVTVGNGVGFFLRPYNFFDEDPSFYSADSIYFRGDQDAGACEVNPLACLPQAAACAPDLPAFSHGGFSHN

| Compound | IC50 [1] [nM] | IC50 (rat VAP-1 enzyme (SSAO)) [nM] | Inhibition Ratio (%) 1 h [2] [%] | Inhibition Ratio (%) 3 h [2] [%] | Inhibition Ratio (%) 6 h [2] [%] | Inhibition Ratio (%) 24 h [2] [%] | Inhibition Ratio (%) 12 h [2] [%] |
| --- | --- | --- | --- | --- | --- | --- | --- |
| N=C(N)NC(=O)OCc1cccc(-c2cnc(OCC3CCN(C(=O)c4cccnc4)CC3)nc2)c1F [Example 29] | 7.2 | 1.9 | 46 | 60 | 58 | 22 | – |
| N=C(N)NC(=O)OCc1cccc(N2CCC(c3ccncc3)CC2)c1F [Example 52] | 23 | 1.7 | 90 | 68 | 52 | – | 37 |
| COC1CN(c2ncc(-c3cccc(COC(=O)NC(=N)N)c3F)cn2)C1 [Example 63] | 3.4 | 1.1 | 83 | 87 | 80 | – | 68 |
| N=C(N)NC(=O)OCc1cccc(-c2cnc(OCC3CCN(C(=O)C4CC4)CC3)nc2)c1F [Example 74] | 5.3 | 1.8 | 79 | 74 | 81 | 40 | – |
| Cl.N=C(N)NC(=O)OCc1cccc(-c2cnc(N3CCOCC3)nc2)c1F [Example 81] | 9.7 | 3.9 | 78 | 78 | 78 | – | 53 |
| CC(=O)Nc1nc(CCc2cccc(CNC(=O)NC(=N)N)c2)cs1.Cl [Example 83] | 25 | 1.9 | 34 | 66 | 86 | – | 53 |
| CC(=O)N1CCC(COc2ncc(-c3cccc(CNC(=O)NC(=N)N)c3F)cn2)CC1 [Example 105] | 14 | 2.6 | 22 | 38 | 31 | 6 | – |
| CC1(O)CCN(c2ncc(N3CCN(c4cccc(COC(=O)NC(=N)N)c4F)CC3)cn2)CC1 [Example 110] | 32 | 1.4 | 96 | 96 | 95 | 75 | – |
| N=C(N)NC(=O)OCc1cccc(N2CCN(c3cnc(N4CC[C@@H](F)C4)nc3)CC2)c1F [Example 118] | 29 | 1.7 | 87 | 86 | 88 | 59 | – |
| COc1ncc(N2CCN(c3cccc(COC(=O)NC(=N)N)c3F)CC2)cn1 [Example 126] | 15 | 0.53 | 98 | 97 | 97 | 69 | – |
| CCS(=O)(=O)N1CCN(c2cccc(COC(=O)NC(=N)N)c2F)CC1 [Example 157] | 49 | 2.1 | 95 | 91 | 80 | 39 | – |
| N=C(N)NC(=O)OCc1cccc(-c2cnc(N3CC[C@H](F)C3)nc2)c1 [Example 178] | 33 | 4.4 | 63 | 73 | 67 | – | 80 |
| CC(=O)N1CCC(OC2CCN(c3cccc(COC(=O)NC(=N)N)c3F)CC2)CC1 [Example 220] | 25 | 1 | 80 | 80 | 84 | 27 | – |
| N=C(N)NC(=O)OCc1cccc(N2CCN(C(=O)CC3CCOCC3)CC2)c1F [Example 273] | 19 | 0.95 | 55 | 74 | 54 | 19 | – |
| N=C(N)NC(=O)OCc1cccc(N2CCN(c3cccnc3)CC2)c1F [Example 293] | – | 0.97 | – | – | – | – | – |
| Cc1ccc(N2CCN(c3cccc(COC(=O)NC(=N)N)c3F)CC2)cn1 [Example 300] | 19 | 1.7 | 92 | 93 | 88 | 85 | – |
| N=C(N)NC(=O)OCc1cccc(N2CCN(c3cccnc3)C(=O)C2)c1F [Example 304] | 34 | 6.6 | 52 | 56 | 56 | 18 | – |
| COC1CN(c2ncc(N3CCN(c4cccc(COC(=O)NC(=N)N)c4F)CC3)cn2)C1 [Example 316, 2-fluoro-3-{4-[2-(3-methoxyazetidin-1-yl)pyrimidin-5-yl]piperazin-1-yl}benzyl carbamimidoylcarbamate trihydrochloride] | 11 | 0.9 | 91 | 99 | 98 | – | 91 |
| N=C(N)NC(=O)NCc1cccc(-c2cnc(N3CCOCC3)nc2)c1 [Example 322] | 51 | 22 | 40 | 55 | 50 | – | 38 |
| N=C(N)NC(=O)OCc1cccc(-c2cnc(N3CCN(c4ccc(CCC(=O)O)cc4)CC3)nc2)c1F [Example 335] | 11 | 2 | 82 | 84 | 86 | – | 83 |
| CCC(=O)N1CCC(OC2CN(c3cccc(COC(=O)NC(=N)N)c3F)C2)CC1 [Example 551] | 14 | 1.8 | 68 | 59 | 51 | 5 | – |
| COCc1ccc(OC2CN(c3cccc(COC(=O)NC(=N)N)c3F)C2)cn1 [Example 553] | 20 | 3 | 67 | 57 | 50 | 40 | – |
| COCc1ccc(N2CCN(c3cccc(COC(=O)NC(=N)N)c3F)CC2)cn1 [Example 554] | 21 | 0.97 | 99 | 100 | 87 | 72 | – |
| Cc1cc(COC2CN(c3cccc(COC(=O)NC(=N)N)c3F)C2)cc(C)n1 [Example 555] | 20 | 3.5 | 67 | 69 | 54 | 27 | – |
| N=C(N)NC(=O)OCc1cccc(N2CCN(c3ccn4ccnc4c3)CC2)c1F [Example 556] | 2.7 | 1.3 | 55 | 70 | 46 | 19 | – |
| COCc1cncc(N2CCN(c3cccc(COC(=O)NC(=N)N)c3F)CC2)c1 [Example 558] | 23 | 1.2 | 84 | 87 | 81 | 62 | – |
| CC(=O)N1CCC(C2CN(c3cccc(COC(=O)NC(=N)N)c3F)C2)CC1 [Example 559] | 4.3 | 0.81 | 86 | 89 | 82 | 59 | – |
| CCC(=O)N1CCC(C2CN(c3cccc(COC(=O)NC(=N)N)c3F)C2)CC1 [Example 560] | 9 | 1.4 | 89 | 91 | 84 | 58 | – |
